# Legend:
# [1] = target: Cyclin-dependent kinase 1/cyclin B (Homo sapiens, UniProt P06493); test: Inhibitory activity against baculovirus expressed Cyclin dependent kinase 1-cyclinB; type: protein-complex assay
# [2] = target: Cyclin-dependent kinase 2/cyclin E (Homo sapiens, UniProt P24941); test: Inhibitory activity against baculovirus expressed Cyclin dependent kinase 2-cyclinE; type: protein-complex assay
# [3] = target: Cyclin-dependent kinase 4/cyclin D1 (Homo sapiens, UniProt P11802); test: Inhibitory activity against baculovirus expressed Cyclin dependent kinase 4-cyclinD1; type: protein-complex assay
# A2780 = test: cells; details: Homo sapiens
# Description: Cytotoxic activity against A2780 human ovarian carcinoma cell line
# Cyclin-dependent kinase 4/cyclin D1, sequence (P11802 whole entry): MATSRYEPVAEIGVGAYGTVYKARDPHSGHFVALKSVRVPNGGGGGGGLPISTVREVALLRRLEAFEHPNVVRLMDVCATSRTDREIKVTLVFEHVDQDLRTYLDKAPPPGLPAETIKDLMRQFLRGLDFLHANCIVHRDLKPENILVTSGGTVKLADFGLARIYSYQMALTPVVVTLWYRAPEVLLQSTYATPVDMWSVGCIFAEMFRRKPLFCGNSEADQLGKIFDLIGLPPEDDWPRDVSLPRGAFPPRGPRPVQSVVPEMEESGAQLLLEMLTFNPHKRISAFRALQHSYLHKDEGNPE
# Cyclin-dependent kinase 4/cyclin D1, sequence (P24385 whole entry, further chain): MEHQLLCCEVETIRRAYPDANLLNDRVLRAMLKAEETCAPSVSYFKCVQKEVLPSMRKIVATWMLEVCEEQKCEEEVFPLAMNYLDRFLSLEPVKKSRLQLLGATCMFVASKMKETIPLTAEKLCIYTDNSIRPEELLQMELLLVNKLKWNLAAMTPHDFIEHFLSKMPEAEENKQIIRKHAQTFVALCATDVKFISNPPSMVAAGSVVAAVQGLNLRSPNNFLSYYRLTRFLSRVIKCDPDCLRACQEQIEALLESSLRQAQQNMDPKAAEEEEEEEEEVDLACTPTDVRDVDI
SMILES,IC50 [1] [nM],IC50 [2] [nM],IC50 [3] [nM],IC50 (A2780) [nM]
CC(=O)Nc1ncc(SCC(=O)OCc2ccccc2)s1,2380,340,19100,
CC(=O)Nc1ncc(SCC2CCCCC2)s1,,> 1000,,
CC(C)(C)c1cnc(CSc2cnc(NC(=O)Nc3c(F)cccc3F)s2)o1,10,2,390,240
CC(C)(C)c1cnc(CSc2cnc(NS(=O)(=O)c3ccccc3)s2)o1,,4280,,2860
CC(=O)Nc1nnc(SCC(=O)OC(C)(C)C)s1,,> 25000,,
CC(C)(C)c1cnc(CSc2cnc(NC(=O)OCc3ccccc3)s2)o1,,150,,1040
CC(=O)Nc1ncc(SCCc2cccc3ccccc23)s1,,> 1000,,
CCOC(=O)CCCCCSc1cnc(NC(C)=O)s1,,> 1000,,
CC(C)(C)c1ncc(CSc2cnc(NC(=O)Cc3ccccc3)s2)o1,,3,,
CC(C)C(=O)N(C)c1ncc(SCc2ncc(C(C)(C)C)o2)s1,,> 25000,,
CC(C)C(=O)Nc1ncc(S(=O)(=O)Cc2ncc(C(C)(C)C)o2)s1,> 250,250,,
CC(C)(C)c1cnc(CSc2cnc(NC(=O)Nc3c(Cl)cccc3Cl)s2)o1,30,3,> 1000,1500
CC(C)(C)c1cnc(CSc2cnc(NC(=O)c3ccccc3)s2)o1,,,960,

# Next, values leading:
IC50 [1] [nM],IC50 [2] [nM],IC50 [3] [nM],IC50 (A2780) [nM],SMILES
,12600,,,CC(=O)Nc1ncc(SCCc2ccccc2)s1
,680,,,CC(=O)Nc1ncc(SCc2cccnc2)s1
,350,4510,,CC(=O)Nc1ncc(SCc2ncc(-c3ccccc3)o2)s1
,> 25000,,,CC(=O)Nc1ncc(SCC(=O)O)s1
30,5,900,50,CC(C)C(=O)Nc1ncc(SCc2ncc(C(C)(C)C)o2)s1
,> 1000,,,CC(=O)Nc1nc(CSc2cnc(NC(C)=O)s2)cs1
,> 1000,,,CC(=O)Nc1ncc(SCc2ccccn2)s1
,> 1000,,,CC(=O)Nc1ncc(SCc2nnsc2Cl)s1
,> 1000,,,CC(=O)Nc1ncc(SCc2c(C)noc2C)s1
,1840,,,CC(=O)Nc1ncc(SCC(=O)CC(C)(C)C)s1
,> 1000,,,COC(=O)c1ccc(CSc2cnc(NC(C)=O)s2)o1
60,6,1070,200,CC(=O)Nc1ncc(SCc2ncc(C(C)C)o2)s1
